Reference: patent US9615576B2, “Pesticidal compositions and processes related thereto” (Dow AgroSciences LLC, priority 2011, dated 2017)

Key:
[1] = system: Beet Armyworm (BAW) (Spodoptera exigua); assay: Bioassays on Beet Armyworm (BAW), 128-well diet tray assay; format: in vivo; settings: 168 h, 50 μg/cm^2 test compound on artificial diet, second instar larvae, 25° C., five to seven days, average of eight wells, read-out: BAW Rating (% mortality)
How it was run: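 Second-instar larvae (1–5 per well) on artificial diet surface-treated with 50 μg/cm^2 compound applied in 90:10 acetone-water and dried; eight wells per compound. Held 5–7 days at 25° C., 14:10 light-dark. Percent mortality scored per well and averaged over eight wells.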

[2] = system: Corn Earworm (CEW) (Helicoverpa zea); assay: Bioassays on Corn Earworm (CEW), 128-well diet tray assay; format: in vivo; settings: 168 h, 50 μg/cm^2 test compound on artificial diet, second instar larvae, 25° C., five to seven days, average of eight wells, read-out: CEW Rating (% mortality)
How it was run: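 Second-instar larvae (one to five per well) placed on artificial diet treated with 50 μg/cm^2 compound in 90:10 acetone-water, dried; eight wells per compound. Held at 25° C, 14:10 light-dark, five to seven days; percent mortality averaged over wells.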

Row | Structure (SMILES) | mortality at 50 µg/cm2 [1] [%] | mortality at 50 µg/cm2 [2] [%]
1 | O=C(CNC(=O)c1ccc(/C=C/C(c2cc(Cl)c(Cl)c(Cl)c2)C(F)(F)F)cc1Cl)NCC(F)(F)F (stereo not drawn) [AC64, (E)-2-chloro-N-(2-oxo-2-((2,2,2-trifluoroethyl)amino)ethyl)-4-(4,4,4-trifluoro-3-(3,4,5-trichlorophenyl)but-1-en-1-yl)benzamide] | 50 to 100 | 50 to 100
2 | N/C(=N\O)c1cc(/C=C/C(c2cc(Cl)cc(Cl)c2)C(F)(F)F)ccc1-n1cncn1 (stereo not drawn) [DC59, (Z)-5-((E)-3-(3,5-dichlorophenyl)-4,4,4-trifluorobut-1-en-1-yl)-N′-hydroxy-2-(1H-1,2,4-triazol-1-yl)benzimidamide] | 0 | 0
3 | O=C(NC1CS(=O)(=O)C1)c1ccc(/C=C/C(c2cc(Cl)c(Cl)c(Cl)c2)C(F)(F)F)cc1Cl (stereo not drawn) [AC30] | 50 to 100 | 50 to 100
4 | FC(F)(F)C(/C=C/c1ccc(-n2cncn2)cc1Cl)c1cc(Cl)c(Cl)c(Cl)c1 (stereo not drawn) [DC66] | 50 to 100 | 50 to 100
5 | O=C(NCC(F)(F)F)c1ccc(/C=C/C(c2cc(Cl)cc(Cl)c2)C(F)(F)F)cc1 (stereo not drawn) [AC4] | 0 | 50 to 100
6 | CC(C)(C)OC(=O)CNC(=O)c1ccc(/C=C/C(c2cc(Cl)c(Cl)c(Cl)c2)C(F)(F)F)cc1Br (stereo not drawn) [AC58] | 50 to 100 | 50 to 100
7 | O=C(NCc1ccc(/C=C/C(c2ccc(Cl)c(Cl)c2)C(F)(F)F)cc1Cl)C1CC1 (stereo not drawn) [CC17] | 50 to 100 | 50 to 100
8 | O=C(NCc1ccc(Cl)nc1)c1ccc(/C=C/C(c2cc(Cl)c(Cl)c(Cl)c2)C(F)(F)F)cc1Br (stereo not drawn) [AC31] | 50 to 100 | 50 to 100
9 | O=C(NC1CSC1)c1ccc(/C=C/C(c2cc(Cl)c(Cl)c(Cl)c2)C(F)(F)F)cc1Br (stereo not drawn) [AC32] | 50 to 100 | 50 to 100
10 | Cc1cc(/C=C\C(c2cc(Cl)cc(Cl)c2)C(F)(F)F)ccc1C(=O)NCC(=O)NC1CC1 (stereo not drawn) [AC93] | 50 to 100 | 0
11 | O=C(CNC(=O)c1ccc(/C=C/C(c2cc(F)c(Cl)c(F)c2)C(F)(F)F)cc1Br)NCC(F)(F)F (stereo not drawn) [AC102] | 0 | 50 to 100
12 | Cc1ccc(C(/C=C/c2ccc(-n3cncn3)cc2)C(F)(F)F)cc1 (stereo not drawn) [DC5] | 0 | 0
13 | O=C(NCc1ccc(/C=C/C(c2cc(Cl)cc(Cl)c2)C(F)(F)F)c2ccccc12)C1CC1 (stereo not drawn) [CC47] | 0 | 0
14 | O=C(CC(F)(F)F)NC1CCc2cc(/C=C/C(c3cc(Cl)c(Cl)c(Cl)c3)C(F)(F)F)ccc21 (stereo not drawn) [BC4, (E)-3,3,3-trifluoro-N-(5-(4,4,4-trifluoro-3-(3,4,5-trichlorophenyl)but-1-enyl)-2,3-dihydro-1H-inden-1-yl)propanamide] | 50 to 100 | 50 to 100
15 | Cc1cc(/C=C/C(c2cc(Cl)cc(Cl)c2)C(F)(F)F)ccc1C(=O)NCC1CCOC1 (stereo not drawn) [AC19] | 0 | 0
16 | Cc1cc(/C=C/C(c2cc(Cl)cc(Cl)c2)C(F)(F)F)ccc1C(=O)NC(C)c1ccc(Cl)nc1 (stereo not drawn) [AC44] | 50 to 100 | 50 to 100
17 | CCc1cc(/C=C/C(c2cc(Cl)c(F)c(Cl)c2)C(F)(F)F)ccc1C(=O)NCC(=O)NCC(F)(F)F (stereo not drawn) [AC80] | 50 to 100 | 50 to 100
18 | O=C(NC1CSC1)c1ccc(/C=C/C(c2cc(Cl)c(Cl)c(Cl)c2)C(F)(F)F)cc1C(F)(F)F (stereo not drawn) [AC34] | 50 to 100 | 50 to 100
19 | CC(=O)Nc1cc(/C=C/C(c2cc(Cl)cc(Cl)c2)C(F)(F)F)ccc1-n1cncn1 (stereo not drawn) [DC56] | 0 | 0
20 | FC(F)(F)C(/C=C/c1ccc(-n2cncn2)cc1)c1ccc(Cl)c(Cl)c1 (stereo not drawn) [DC12] | 50 to 100 | 50 to 100
21 | Cc1cc(/C=C/C(c2cc(Cl)cc(Cl)c2)C(F)(F)F)ccc1C(=O)NOCc1ccc(Cl)nc1 (stereo not drawn) [AC21] | 0 | 0
